Source: patent US20230203043A1, “NOVEL IMIDAZOPYRAZINE DERIVATIVES” (Hoffmann-La Roche Inc., priority 2020, published 2023)
Where a name gives a salt, the structure may show the parent alone.

Each molecule was assayed on Acinetobacter baumannii ATCC17961 (assay: Antimicrobial susceptibility testing: 90% growth inhibitory concentration (IC90) determination in Iso-Sensitest broth, OD600 growth). Conditions: Acinetobacter baumannii, ATCC17961, 16 h, read-out: A. baumannii ATCC 17961 IC90 (uM), strain ATCC 17961, OD600 growth over 16 h.
Type: cell-based
Outline: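 Compounds were twofold serially diluted in DMSO across 10 points (e.g. 50 to 0.097 μM final) and inoculated at ~5×10^(5) CFU/ml. Plates incubated at 35±2° C, with OD600 read every 20 minutes over 16 h. IC90 was derived from growth inhibition during logarithmic growth.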

SMILES	IC90 [µM]
CCc1cc(Nc2nccn3c(-c4cn(CC=C(C)C)nc4C(F)(F)F)cnc23)ccc1C(=O)NCCOCCN [Example 614, N-(2-(2-aminoethoxy)ethyl)-2-ethyl-4-((3-(1-(3-methylbut-2-en-1-yl)-3-(trifluoromethyl)-1H-pyrazol-4-yl)imidazo[1,2-a]pyrazin-8-yl)amino)benzamide formate]	0.11
CCc1cc(Nc2nccn3c(-c4cn(CC(F)F)nc4C(F)(F)F)cnc23)ccc1C(=O)NCCNC(=O)[C@H](C)N [Example 616, (S)-N-(2-(2-aminopropanamido)ethyl)-4-((3-(1-(2,2-difluoroethyl)-3-(trifluoromethyl)-1H-pyrazol-4-yl)imidazo[1,2-a]pyrazin-8-yl)amino)-2-ethylbenzamide formate]	0.153
CCc1cc(Nc2nccn3c(-c4cn(CC(F)F)nc4C(F)(F)F)cnc23)ccc1C(=O)NCCOCCCN [Example 618, N-(2-(3-aminopropoxy)ethyl)-4-((3-(1-(2,2-difluoroethyl)-3-(trifluoromethyl)-1H-pyrazol-4-yl)imidazo[1,2-a]pyrazin-8-yl)amino)-2-ethylbenzamide formate]	0.129
CCc1cc(Nc2nccn3c(-c4cn(C5CCC5)nc4C(F)(F)F)cnc23)ccc1C(=O)NCCOCCN1CCCC1 [Example 619, 4-((3-(1-cyclobutyl-3-(trifluoromethyl)-1H-pyrazol-4-yl)imidazo[1,2-a]pyrazin-8-yl)amino)-2-ethyl-N-(2-(2-(pyrrolidin-1-yl)ethoxy)ethyl)benzamide formate]	0.131
CCc1cc(Nc2nccn3c(-c4cn(CC#N)nc4C(F)(F)F)cnc23)ccc1C(=O)NCCNC(=O)CN [Example 620, N-(2-(2-aminoacetamido)ethyl)-4-((3-(1-(cyanomethyl)-3-(trifluoromethyl)-1H-pyrazol-4-yl)imidazo[1,2-a]pyrazin-8-yl)amino)-2-ethylbenzamide formate]	0.139
CCc1cc(Nc2nccn3c(-c4cn(CC#N)nc4C(F)(F)F)cnc23)ccc1C(=O)NCC1CC1N (stereo not drawn) [Example 623, N-((2-aminocyclopropyl)methyl)-4-((3-(1-(cyanomethyl)-3-(trifluoromethyl)-1H-pyrazol-4-yl)imidazo[1,2-a]pyrazin-8-yl)amino)-2-ethylbenzamide formate]	0.161
CCc1cc(Nc2nccn3c(-c4cn(CC#N)nc4C(F)(F)F)cnc23)ccc1C(=O)NCCNC(=O)[C@@H](C)N [Example 625, (R)-N-(2-(2-aminopropanamido)ethyl)-4-((3-(1-(cyanomethyl)-3-(trifluoromethyl)-1H-pyrazol-4-yl)imidazo[1,2-a]pyrazin-8-yl)amino)-2-ethylbenzamide formate]	0.176
CCc1cc(Nc2nccn3c(-c4cn(CC#N)nc4C(F)(F)F)cnc23)ccc1C(=O)NCCCNC(=O)[C@@H](C)N [Example 626, (R)-N-(3-(2-aminopropanamido)propyl)-4-((3-(1-(cyanomethyl)-3-(trifluoromethyl)-1H-pyrazol-4-yl)imidazo[1,2-a]pyrazin-8-yl)amino)-2-ethylbenzamide formate]	0.233
CCc1cc(Nc2nccn3c(-c4cn(CC(F)F)nc4C(F)(F)F)cnc23)ccc1C(=O)NCCCNC(=O)[C@H](C)N [Example 628, (S)-N-(3-(2-aminopropanamido)propyl)-4-((3-(1-(2,2-difluoroethyl)-3-(trifluoromethyl)-1H-pyrazol-4-yl)imidazo[1,2-a]pyrazin-8-yl)amino)-2-ethylbenzamide formate]	0.195
CCc1cc(Nc2nccn3c(-c4cn(CC(F)F)nc4C(F)(F)F)cnc23)ccc1C(=O)NCCCNC(=O)CCN [Example 630, N-(3-(3-aminopropanamido)propyl)-4-((3-(1-(2,2-difluoroethyl)-3-(trifluoromethyl)-1H-pyrazol-4-yl)imidazo[1,2-a]pyrazin-8-yl)amino)-2-ethylbenzamide formate]	0.206
CCc1cc(Nc2nccn3c(-c4cn(CC(F)F)nc4C(F)(F)F)cnc23)ccc1C(=O)NCCCNC(=O)[C@@H](C)N [Example 633, (R)-N-(3-(2-aminopropanamido)propyl)-4-((3-(1-(2,2-difluoroethyl)-3-(trifluoromethyl)-1H-pyrazol-4-yl)imidazo[1,2-a]pyrazin-8-yl)amino)-2-ethylbenzamide formate]	0.214

Same assay, conditions: Acinetobacter baumannii, ATCC17961, 16 h, strain ATCC 17961, OD600 growth over 16 h, read-out: A. baumannii ATCC 17961 IC90

SMILES	IC90 [µM]
Cc1cc(Nc2nccn3c(-c4cn(CC(F)F)nc4C(F)(F)F)cnc23)cc(F)c1C(=O)NCCCCCCN [Example 615, N-(6-aminohexyl)-4-((3-(1-(2,2-difluoroethyl)-3-(trifluoromethyl)-1H-pyrazol-4-yl)imidazo[1,2-a]pyrazin-8-yl)amino)-2-fluoro-6-methylbenzamide]	0.122
CCc1cc(Nc2nccn3c(-c4cn(CCF)nc4C(F)(F)F)cnc23)ccc1C(=O)NCCOCCN1CCCC1 [Example 617, 2-ethyl-4-((3-(1-(2-fluoroethyl)-3-(trifluoromethyl)-1H-pyrazol-4-yl)imidazo[1,2-a]pyrazin-8-yl)amino)-N-(2-(2-(pyrrolidin-1-yl)ethoxy)ethyl) benzamide formate]	0.125
CCc1cc(Nc2nccn3c(-c4cn(CC(F)F)nc4C(F)(F)F)cnc23)ccc1C(=O)NCCOCCN1CCCC1 [Example 621, 4-((3-(1-(2,2-difluoroethyl)-3-(trifluoromethyl)-1H-pyrazol-4-yl)imidazo[1,2-a]pyrazin-8-yl)amino)-2-ethyl-N-(2-(2-(pyrrolidin-1-yl)ethoxy)ethyl) benzamide formate]	0.144
CCc1cc(Nc2nccn3c(-c4cn(CCOC(F)(F)F)nc4C(F)(F)F)cnc23)ccc1C(=O)NCCOCCN [Example 622, N-(2-(2-aminoethoxy)ethyl)-2-ethyl-4-((3-(1-(2-(trifluoromethoxy)ethyl)-3-(trifluoromethyl)-1H-pyrazol-4-yl)imidazo[1,2-a]pyrazin-8-yl)amino)benzamide]	0.148
CCc1cc(Nc2nccn3c(-c4cn(CC(F)F)nc4C(F)(F)F)cnc23)ccc1C(=O)NCCNC(=O)[C@H]1C[C@@H](N)C1 [Example 624, cis-N-(2-((1s,3s)-3-aminocyclobutane-1-carboxamido)ethyl)-4-((3-(1-(2,2-difluoroethyl)-3-(trifluoromethyl)-1H-pyrazol-4-yl)imidazo[1,2-a]pyrazin-8-yl)amino)-2-ethylbenzamide formate]	0.19
CCc1cc(Nc2nccn3c(-c4cn(CC(F)F)nc4C(F)(F)F)cnc23)ccc1C(=O)NCCCNC(=O)[C@@H]1CCCN1 [Example 627, (S)-N-(3-(4-((3-(1-(2,2-difluoroethyl)-3-(trifluoromethyl)-1H-pyrazol-4-yl)imidazo[1,2-a]pyrazin-8-yl)amino)-2-ethylbenzamido)propyl) pyrrolidine-2-carboxamide]	0.19
C=CCn1cc(-c2cnc3c(Nc4cc(C)c(C(=O)N5CCN(C(=O)[C@H]6CC[C@H](O)N6)CC5)c(F)c4)nccn23)c(C(F)(F)F)n1 [Example 629, (4-(4-((3-(1-allyl-3-(trifluoromethyl)-1H-pyrazol-4-yl)imidazo[1,2-a]pyrazin-8-yl)amino)-2-fluoro-6-methylbenzoyl)piperazin-1-yl)((2R,5S)-5-hydroxypyrrolidin-2-yl)methanone]	0.198
CCc1cc(Nc2nccn3c(-c4c[nH]nc4C(F)(F)F)cnc23)ccc1C(=O)NCCCNC(=O)N1CC[C@@H](N)C1 [Example 631, (R)-3-amino-N-(3-(2-ethyl-4-((3-(3-(trifluoromethyl)-1H-pyrazol-4-yl)imidazo[1,2-a]pyrazin-8-yl)amino)benzamido)propyl) pyrrolidine-1-carboxamide]	0.209
CCc1cc(Nc2nccn3c(-c4cn(CC(F)F)nc4C(F)(F)F)cnc23)ccc1C(=O)NCCCNC(=O)N1CC[C@@H](N)C1 [Example 632, (R)-3-amino-N-(3-(4-((3-(1-(2,2-difluoroethyl)-3-(trifluoromethyl)-1H-pyrazol-4-yl)imidazo[1,2-a]pyrazin-8-yl)amino)-2-ethylbenzamido)propyl) pyrrolidine-1-carboxamide formate]	0.209
CCc1cc(Nc2nccn3c(-c4c[nH]nc4C(F)(F)F)cnc23)ccc1C(=O)NCCCNC(=O)[C@@H]1CCCN1 [Example 634, (S)-N-(3-(2-ethyl-4-((3-(3-(trifluoromethyl)-1H-pyrazol-4-yl)imidazo[1,2-a]pyrazin-8-yl)amino)benzamido)propyl) pyrrolidine-2-carboxamide]	0.218
O=C(c1ccc(Nc2nccn3c(-c4cn(CC(F)F)nc4C(F)(F)F)cnc23)cc1Cl)N1CC2(C1)CN(C(=O)[C@@H]1CCCN1)C2 [Example 635, (S)-(2-chloro-4-((3-(1-(2,2-difluoroethyl)-3-(trifluoromethyl)-1H-pyrazol-4-yl)imidazo[1,2-a]pyrazin-8-yl)amino)phenyl)(6-prolyl-2,6-diazaspiro [3.3]heptan-2-yl)methanone]	0.22
N#CCn1cc(-c2cnc3c(Nc4ccc(C(=O)N5CC6(C5)CN(C(=O)[C@@H]5CCCN5)C6)c(Cl)c4)nccn23)c(C(F)(F)F)n1 [Example 636, (S)-2-(4-(8-((3-chloro-4-(6-prolyl-2,6-diazaspiro[3.3]heptane-2-carbonyl)phenyl)amino)imidazo[1,2-a]pyrazin-3-yl)-3-(trifluoromethyl)-1H-pyrazol-1-yl)acetonitrile]	0.222
CCc1cc(Nc2nccn3c(-c4cn(CC#N)nc4C(F)(F)F)cnc23)ccc1C(=O)NCCNC(=O)[C@@H]1C[C@@H](O)CN1 [Example 637, (2S,4R)-N-(2-(4-((3-(1-(cyanomethyl)-3-(trifluoromethyl)-1H-pyrazol-4-yl)imidazo[1,2-a]pyrazin-8-yl)amino)-2-ethylbenzamido)ethyl)-4-hydroxypyrrolidine-2-carboxamide]	0.226
